Test results as given in patent US9732087B2, “Diamino-pyridine, pyrimidine, and pyridazine modulators of the histamine H4 receptor” (JANSSEN PHARMACEUTICA NV, priority 2008, dated 2017).
pKi: −log10 of the molar value. Structures can show the parent of a compound that is named as a salt. Where two headings read alike, the source gives them in different places.

Target: human H4 receptor (Homo sapiens (Human), UniProt Q9H3N8)
Assay: Binding assay on recombinant human histamine H4 receptor ([3H]histamine competition, SK-N-MC cell membranes)
Conditions: [3H]histamine 10 nM, average of results
In short: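 Scintillation counting of filter-bound [3H]histamine after rapid harvesting on 0.5% PEI-treated GF/C filters with ice-cold Tris/EDTA washes. Receptor source: 30,000 g membrane pellets of SK-N-MC cells stably or transiently expressing human H4. Values shown as '>' are the top concentration tested.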

[1] = membranes harvested with cell harvester, read-out: Cell Harvester Ki
[2] = membranes harvested with 96 well Brandel system, read-out: Brandel Ki

Chain of human H4 receptor (Q9H3N8 whole entry): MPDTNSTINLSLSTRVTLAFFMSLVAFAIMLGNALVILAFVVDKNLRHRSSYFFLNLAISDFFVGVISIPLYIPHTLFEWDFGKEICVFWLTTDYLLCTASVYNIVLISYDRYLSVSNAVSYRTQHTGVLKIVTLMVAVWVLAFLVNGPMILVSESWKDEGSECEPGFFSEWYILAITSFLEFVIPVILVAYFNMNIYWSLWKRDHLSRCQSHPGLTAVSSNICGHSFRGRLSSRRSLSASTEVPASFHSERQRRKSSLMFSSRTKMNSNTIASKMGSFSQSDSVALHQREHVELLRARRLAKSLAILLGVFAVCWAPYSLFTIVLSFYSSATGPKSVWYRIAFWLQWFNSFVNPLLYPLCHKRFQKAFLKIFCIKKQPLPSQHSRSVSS

Row | Structure (SMILES) | pKi [1] | pKi [2]
1 | CN[C@H]1CCN(c2ccnc(NC3CC3)n2)C1 [Example 145, N-Cyclopropyl-4-[(3S)-3-(methylamino)pyrrolidin-1-yl]pyrimidin-2-amine] | 6.03 | –
2 | N[C@H]1CCN(c2cnnc(NC3CC3)c2)C1 [Example 336, 5-[(3S)-3-Aminopyrrolidin-1-yl]-N-cyclopropylpyridazin-3-amine] | < 5.00 | –
3 | CNC1CN(c2ccnc(NCC(C)(C)O)n2)C1 [Example 122] | 7.19 | –
4 | N[C@H]1CCN(c2ccnc(NCc3ccccc3)c2)C1 [Example 267, 4-[(3S)-3-Aminopyrrolidin-1-yl]-N-benzylpyridin-2-amine] | 5.82 | –
5 | COCCNc1cc(N2CC[C@H](N)C2)ccn1 [Example 264, 4-[(3S)-3-Aminopyrrolidin-1-yl]-N-(2-methoxyethyl)pyridin-2-amine] | < 5.00 | –
6 | CC1C(Nc2cc(N3CCNCC3)ccn2)C[C@H]2C[C@@H]1C2(C)C (stereo partly drawn) [Example 269, 4-Piperazin-1-yl-N-[(1S,5R)-2,6,6-trimethylbicyclo[3.1.1]hept-3-yl]pyridine-2-amine] | 5.68 | –
7 | CCCCNc1cc(N2CC[C@@H](N)C2)cnn1 [Example 367, 5-[(3R)-3-Aminopyrrolidin-1-yl]-N-butylpyridazin-3-amine] | 6.06 | –
8 | COCCNc1cc(N2CC[C@@H](N)C2)ccn1 [Example 289, 4-[(3R)-3-Aminopyrrolidin-1-yl]-N-(2-methoxyethyl)pyridin-2-amine] | 6.39 | –
9 | CNC1CN(c2cnnc(NCCOC)c2)C1 [Example 320, N-(2-Methoxyethyl)-5-[3-(methylamino)azetidin-1-yl]pyridazin-3-amine] | 5.37 | –
10 | CC(C)CNc1nccc(N2CCNCC2)n1 [Example 65, Isobutyl-(4-piperazin-1-yl-pyrimidin-2-yl)-amine] | 7.16 | 7.33
11 | c1ccc(CNc2cc(N3CCNCC3)ccn2)cc1 [Example 18, N-Benzyl-4-piperazin-1-ylpyridin-2-amine dihydrochloride] | 6.28 | –
12 | Fc1ccc(CNc2cc(N3CCNCC3)cnn2)cc1 [Example 346, N-(4-Fluorobenzyl)-5-piperazin-1-ylpyridazin-3-amine] | < 5.00 | –
13 | CN[C@H]1CCN(c2ccnc(NCC3CCCC3)c2)C1 [Example 227, N-(Cyclopentylmethyl)-4-[(3S)-3-(methylamino)pyrrolidin-1-yl]pyridin-2-amine] | 6.59 | –
14 | NC1CN(c2ccnc(N[C@@H]3CCOC3)n2)C1 [Example 93, 4-(3-Aminoazetidin-1-yl)-N-[(3R)-tetrahydrofuran-3-yl]pyrimidin-2-amine] | 6.15 | –
15 | CC1(C)[C@H]2CC[C@H](CNc3nccc(N4C[C@H]5CCN[C@H]5C4)n3)[C@@H]1C2 [Example 104, N-{[(1S,2S,5S)-6,6-Dimethylbicyclo[3.1.1]hept-2-yl]methyl}-4-[(3aR,6aR)-hexahydropyrrolo[3,4-b]pyrrol-5(1H)-yl]pyrimidin-2amine] | 5.98 | –
16 | CCCCNc1nccc(N2CC[C@@H](NC)C2)n1 [Example 73, Butyl-[4-(3R)-(3-methylamino-pyrrolidin-1-yl)-pyrimidin-2-yl]-amine] | 9.15 | 8.70
17 | CN1CCN(c2ccnc(NC34C[C@H]5C[C@@H](C3)C[C@@H](C4)C5)c2)CC1 [Example 219, Adamantan-1-yl-[4-(4-methyl-piperazin-1-yl)-pyridin-2-yl]-amine] | 6.73 | –
18 | CC(C)(C)CNc1cc(N2CC[C@@H](N)C2)cnn1 [Example 371, 5-[(3R)-3-Aminopyrrolidin-1-yl]-N-(2,2-dimethylpropyl)pyridazin-3-amine] | 6.89 | –
19 | Cc1ccc(CNc2nccc(N3CCN(C)CC3)n2)cc1 [Example 163] | 6.56 | –
20 | CN[C@@H]1CCN(c2ccnc(N[C@H]3C[C@H]4CC[C@]3(C)C4(C)C)c2)C1 [Example 247, 4-[(3R)-3-(Methylamino)pyrrolidin-1-yl]-N-[(1R,2S,4R)-1,7,7-trimethylbicyclo[2.2.1]hept-2-yl]pyridin-2-amine] | 8.85 | –
